The target of this assay is T1, human leukocyte elastase (HLE) (Homo sapiens, UniProt P08246).
T1 sequence (P08246 30-247 limits assumed): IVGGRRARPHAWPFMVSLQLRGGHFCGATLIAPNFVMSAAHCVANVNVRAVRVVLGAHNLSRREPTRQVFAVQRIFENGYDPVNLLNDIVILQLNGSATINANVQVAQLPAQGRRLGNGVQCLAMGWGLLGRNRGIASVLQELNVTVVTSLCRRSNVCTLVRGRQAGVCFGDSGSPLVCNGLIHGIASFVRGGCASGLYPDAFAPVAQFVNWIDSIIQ
Description: in vitro anti-elastase activity against human leukocyte elastase (HLE). It counts as biochemical.

Turning to `CC1=C(C(=O)C(C)(C)C)N2C(=O)[C@H](Cl)[C@H]2S(=O)(=O)C12CC2(c1ccccc1)c1ccccc1` (stereo partly drawn) [Compd 5, 7α-Chloro-2-spiro(2',2'-diphenyl)cyclopropyl-3-methyl-3-cephem-4-t-butylcarbonyl 1,1-dioxide], the concentration for half-maximal inhibition (IC50) came to 6.3 nM.
As for `CC1=C(C(=O)c2ccccc2)N2C(=O)[C@H](Cl)[C@H]2S(=O)(=O)C12CC2(c1ccccc1)c1ccccc1` (stereo partly drawn) [Compd 4, 7α-chloro-2-spiro (2',2'-diphenyl)cyclopropyl-3-methyl-3-cephem-4-phenylcarbonyl 1,1-dioxide], the figure is 8.9 nM.
In turn, `CCC(=O)C1=C(C)C2(CC2(c2ccccc2)c2ccccc2)S(=O)(=O)[C@@H]2[C@@H](OC)C(=O)N12` (stereo partly drawn) [Compd 2, 7α-Methoxy-2-spiro (2',2'-diphenyl)cyclopropyl-3-methyl-3-cephem-4-ethylcarbonyl 1,1-dioxide] had an IC50 of 10.3 nM.
Turning to `CO[C@H]1C(=O)N2C(C(=O)C(C)(C)C)=C(C)C3(CC3(c3ccccc3)c3ccccc3)S(=O)(=O)[C@H]12` (stereo partly drawn) [Compd 6, 7α-Methoxy-2-spiro(2',2'-diphenyl)cyclopropyl-3-methyl-3-cephem-4-t-butylcarbonyl 1,1-dioxide], the IC50 is 12 nM.
`CCCCC(=O)C1=C(C)C2(CC2(c2ccccc2)c2ccccc2)S(=O)(=O)[C@@H]2[C@@H](OC)C(=O)N12` (stereo partly drawn) [Compd 3, 7α-Methoxy-2-spiro(2',2'-diphenyl)cyclopropyl-3-methyl-3-cephem-4-butylcarbonyl 1,1-dioxide]: the IC50 is 7.4 nM. This IC50 is about 1.6-fold lower than that of the compound before.

What is called IC50 is the concentration at which inhibition is half-maximal. Higher therefore signals a need for much substance.

The record behind these values is patent publication US5258377A, “2-spirocyclopropyl 4-acylcephems” (Taiho Pharmaceutical Co., Ltd., priority 1991, dated 1993).
